Experimental data reported in ChEMBL document CHEMBL3627608, “Crystal structures of human RIP2 kinase catalytic domain complexed with ATP-competitive inhibitors: Foundations for understanding inhibitor selectivity” (Bioorg Med Chem, 2015).

Tests used:
[1] = target: T1, Mitogen-activated protein kinase kinase kinase kinase 3 (Homo sapiens) (UniProt Q8IVH8); test: Inhibition of GLK (unknown origin) at 10 uM after 120 mins P33 radiolabeled kinase activity assay
T1 sequence (whole entry): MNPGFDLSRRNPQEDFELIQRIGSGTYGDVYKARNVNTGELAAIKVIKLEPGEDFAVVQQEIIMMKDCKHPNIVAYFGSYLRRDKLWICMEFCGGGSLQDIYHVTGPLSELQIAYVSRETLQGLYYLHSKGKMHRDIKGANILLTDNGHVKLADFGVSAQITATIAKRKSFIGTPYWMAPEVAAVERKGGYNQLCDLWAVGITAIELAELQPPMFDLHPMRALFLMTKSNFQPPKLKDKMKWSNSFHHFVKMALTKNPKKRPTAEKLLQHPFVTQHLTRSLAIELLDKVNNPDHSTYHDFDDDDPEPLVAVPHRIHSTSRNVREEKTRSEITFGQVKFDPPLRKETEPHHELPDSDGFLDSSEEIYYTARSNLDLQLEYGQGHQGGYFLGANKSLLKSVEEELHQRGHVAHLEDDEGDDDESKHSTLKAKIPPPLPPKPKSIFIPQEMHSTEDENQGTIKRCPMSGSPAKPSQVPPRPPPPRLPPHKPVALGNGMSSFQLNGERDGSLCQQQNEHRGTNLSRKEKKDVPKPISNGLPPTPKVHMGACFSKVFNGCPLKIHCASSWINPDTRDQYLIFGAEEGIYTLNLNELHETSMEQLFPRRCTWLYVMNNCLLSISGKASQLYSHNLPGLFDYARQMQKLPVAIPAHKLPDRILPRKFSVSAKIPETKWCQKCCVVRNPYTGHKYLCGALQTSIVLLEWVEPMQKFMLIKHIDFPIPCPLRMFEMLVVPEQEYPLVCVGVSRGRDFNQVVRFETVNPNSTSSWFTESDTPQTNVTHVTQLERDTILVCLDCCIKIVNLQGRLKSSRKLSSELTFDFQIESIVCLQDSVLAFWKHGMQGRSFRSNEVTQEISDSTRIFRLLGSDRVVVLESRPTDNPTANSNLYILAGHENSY

[2] = target: T2, Rhodopsin kinase GRK1 (Homo sapiens) (UniProt Q15835); test: Inhibition of GRK1 (unknown origin) at 10 uM after 120 mins P33 radiolabeled kinase activity assay
T2 sequence (whole entry): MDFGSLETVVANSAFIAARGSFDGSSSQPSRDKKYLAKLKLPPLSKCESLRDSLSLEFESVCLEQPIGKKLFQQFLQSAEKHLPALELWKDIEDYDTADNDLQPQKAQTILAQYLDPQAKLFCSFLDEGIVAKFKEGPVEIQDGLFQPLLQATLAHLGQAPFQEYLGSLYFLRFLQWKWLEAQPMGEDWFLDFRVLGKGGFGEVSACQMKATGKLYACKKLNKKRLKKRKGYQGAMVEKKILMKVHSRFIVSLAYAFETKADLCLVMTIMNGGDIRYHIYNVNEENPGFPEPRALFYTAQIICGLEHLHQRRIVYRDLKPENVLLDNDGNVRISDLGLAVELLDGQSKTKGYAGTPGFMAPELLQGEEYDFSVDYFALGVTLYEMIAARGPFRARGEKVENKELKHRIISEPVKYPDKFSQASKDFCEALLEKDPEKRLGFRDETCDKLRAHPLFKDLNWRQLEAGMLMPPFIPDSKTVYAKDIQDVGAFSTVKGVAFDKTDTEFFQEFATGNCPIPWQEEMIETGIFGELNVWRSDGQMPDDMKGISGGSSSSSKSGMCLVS

[3] = target: T3, Serine/threonine-protein kinase Nek11 (Homo sapiens) (UniProt Q8NG66); test: Inhibition of NEK11 (unknown origin) at 10 uM after 120 mins P33 radiolabeled kinase activity assay
T3 sequence (whole entry): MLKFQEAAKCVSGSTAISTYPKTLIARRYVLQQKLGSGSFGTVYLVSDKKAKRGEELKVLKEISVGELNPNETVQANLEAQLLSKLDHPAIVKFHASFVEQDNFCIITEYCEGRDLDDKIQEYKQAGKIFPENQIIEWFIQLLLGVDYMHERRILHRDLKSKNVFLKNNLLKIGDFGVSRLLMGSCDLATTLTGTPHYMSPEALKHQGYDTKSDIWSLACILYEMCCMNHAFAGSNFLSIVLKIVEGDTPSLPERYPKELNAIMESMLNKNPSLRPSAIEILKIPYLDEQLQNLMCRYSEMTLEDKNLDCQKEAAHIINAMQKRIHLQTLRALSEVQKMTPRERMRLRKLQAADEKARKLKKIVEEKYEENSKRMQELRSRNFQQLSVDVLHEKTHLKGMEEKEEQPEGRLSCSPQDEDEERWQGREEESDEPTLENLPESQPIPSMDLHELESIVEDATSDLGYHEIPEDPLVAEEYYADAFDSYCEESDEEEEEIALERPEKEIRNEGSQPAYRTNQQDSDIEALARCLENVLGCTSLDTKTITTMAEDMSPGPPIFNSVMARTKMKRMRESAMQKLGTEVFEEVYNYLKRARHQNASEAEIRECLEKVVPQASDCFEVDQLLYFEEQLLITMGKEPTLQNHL

[4] = target: Serine/threonine-protein kinase PAK 2 (Homo sapiens) (UniProt Q13177); test: Inhibition of PAK2 (unknown origin) at 10 uM after 120 mins P33 radiolabeled kinase activity assay
[5] = species: Homo sapiens; test: Inhibition of PKG1alpha (unknown origin) at 10 uM after 120 mins P33 radiolabeled kinase activity assay
[6] = target: Serine/threonine-protein kinase N1 (Homo sapiens) (UniProt Q16512); test: Inhibition of PKN1 (unknown origin) at 10 uM after 120 mins P33 radiolabeled kinase activity assay
[7] = target: Tyrosine-protein kinase JAK2 (Homo sapiens) (UniProt O60674); test: Inhibition of JAK2 (unknown origin) at 10 uM after 120 mins P33 radiolabeled kinase activity assay
[8] = target: Macrophage-stimulating protein receptor (Homo sapiens) (UniProt Q04912); test: Inhibition of RON (unknown origin) at 10 uM after 120 mins P33 radiolabeled kinase activity assay
[9] = target: Mitogen-activated protein kinase kinase kinase 9 (Homo sapiens) (UniProt P80192); test: Inhibition of MLK1 (unknown origin) at 10 uM after 120 mins P33 radiolabeled kinase activity assay
[10] = target: Serine/threonine-protein kinase 32C (Homo sapiens) (UniProt Q86UX6); test: Inhibition of STK32C (unknown origin) at 10 uM after 120 mins P33 radiolabeled kinase activity assay
[11] = target: Cyclin-dependent kinase 18 (Homo sapiens) (UniProt Q07002); test: Inhibition of PCTK3 (unknown origin) at 10 uM after 120 mins P33 radiolabeled kinase activity assay
[12] = target: Calcium/calmodulin-dependent protein kinase type II subunit beta (Homo sapiens) (UniProt Q13554); test: Inhibition of CAMK2beta (unknown origin) at 10 uM after 120 mins P33 radiolabeled kinase activity assay
[13] = target: Casein kinase I isoform delta (Homo sapiens) (UniProt P48730); test: Inhibition of CK1delta (unknown origin) at 10 uM after 120 mins P33 radiolabeled kinase activity assay
Casein kinase I isoform delta (Homo sapiens), sequence (P48730 whole entry, looked up, canonical isoform): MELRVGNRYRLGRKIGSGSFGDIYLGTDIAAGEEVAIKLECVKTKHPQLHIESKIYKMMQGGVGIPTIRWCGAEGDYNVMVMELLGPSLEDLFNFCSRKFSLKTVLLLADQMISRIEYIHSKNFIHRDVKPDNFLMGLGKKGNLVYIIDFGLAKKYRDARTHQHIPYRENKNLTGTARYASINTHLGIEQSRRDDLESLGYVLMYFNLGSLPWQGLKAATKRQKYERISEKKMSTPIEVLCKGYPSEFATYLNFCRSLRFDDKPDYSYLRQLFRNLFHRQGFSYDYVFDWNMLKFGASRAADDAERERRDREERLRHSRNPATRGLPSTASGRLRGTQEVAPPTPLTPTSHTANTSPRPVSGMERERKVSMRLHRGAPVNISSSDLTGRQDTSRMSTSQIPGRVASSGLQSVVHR

Tyrosine-protein kinase JAK2 (Homo sapiens), sequence (O60674 whole entry): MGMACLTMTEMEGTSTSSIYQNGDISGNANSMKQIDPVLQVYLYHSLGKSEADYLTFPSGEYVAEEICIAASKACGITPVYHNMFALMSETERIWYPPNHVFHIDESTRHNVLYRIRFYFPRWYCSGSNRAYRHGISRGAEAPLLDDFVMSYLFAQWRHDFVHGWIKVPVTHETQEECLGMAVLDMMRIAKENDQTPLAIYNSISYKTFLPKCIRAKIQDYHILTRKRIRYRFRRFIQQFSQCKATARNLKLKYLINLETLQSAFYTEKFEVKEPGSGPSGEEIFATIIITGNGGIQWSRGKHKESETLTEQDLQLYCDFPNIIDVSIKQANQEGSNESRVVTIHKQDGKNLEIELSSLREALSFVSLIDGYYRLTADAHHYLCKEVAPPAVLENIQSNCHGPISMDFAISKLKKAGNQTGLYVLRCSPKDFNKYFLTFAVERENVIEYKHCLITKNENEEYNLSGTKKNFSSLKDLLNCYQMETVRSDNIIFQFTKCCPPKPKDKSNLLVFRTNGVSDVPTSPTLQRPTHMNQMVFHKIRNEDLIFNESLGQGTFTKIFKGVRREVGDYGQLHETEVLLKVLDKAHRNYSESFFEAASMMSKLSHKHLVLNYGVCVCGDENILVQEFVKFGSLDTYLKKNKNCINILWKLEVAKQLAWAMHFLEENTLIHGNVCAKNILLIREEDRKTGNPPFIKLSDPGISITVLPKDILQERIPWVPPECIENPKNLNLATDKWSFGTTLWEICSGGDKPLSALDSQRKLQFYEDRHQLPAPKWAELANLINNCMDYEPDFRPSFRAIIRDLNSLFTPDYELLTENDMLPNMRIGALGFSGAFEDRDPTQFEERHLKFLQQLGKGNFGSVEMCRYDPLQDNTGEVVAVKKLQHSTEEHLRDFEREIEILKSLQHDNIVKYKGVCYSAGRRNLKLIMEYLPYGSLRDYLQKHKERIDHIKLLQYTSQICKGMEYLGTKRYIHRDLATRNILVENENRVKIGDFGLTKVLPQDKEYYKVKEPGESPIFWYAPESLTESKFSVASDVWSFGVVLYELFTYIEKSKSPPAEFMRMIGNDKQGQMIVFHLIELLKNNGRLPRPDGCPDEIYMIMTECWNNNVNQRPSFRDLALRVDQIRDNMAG
Serine/threonine-protein kinase N1 (Homo sapiens), sequence (Q16512 2-942 limits assumed): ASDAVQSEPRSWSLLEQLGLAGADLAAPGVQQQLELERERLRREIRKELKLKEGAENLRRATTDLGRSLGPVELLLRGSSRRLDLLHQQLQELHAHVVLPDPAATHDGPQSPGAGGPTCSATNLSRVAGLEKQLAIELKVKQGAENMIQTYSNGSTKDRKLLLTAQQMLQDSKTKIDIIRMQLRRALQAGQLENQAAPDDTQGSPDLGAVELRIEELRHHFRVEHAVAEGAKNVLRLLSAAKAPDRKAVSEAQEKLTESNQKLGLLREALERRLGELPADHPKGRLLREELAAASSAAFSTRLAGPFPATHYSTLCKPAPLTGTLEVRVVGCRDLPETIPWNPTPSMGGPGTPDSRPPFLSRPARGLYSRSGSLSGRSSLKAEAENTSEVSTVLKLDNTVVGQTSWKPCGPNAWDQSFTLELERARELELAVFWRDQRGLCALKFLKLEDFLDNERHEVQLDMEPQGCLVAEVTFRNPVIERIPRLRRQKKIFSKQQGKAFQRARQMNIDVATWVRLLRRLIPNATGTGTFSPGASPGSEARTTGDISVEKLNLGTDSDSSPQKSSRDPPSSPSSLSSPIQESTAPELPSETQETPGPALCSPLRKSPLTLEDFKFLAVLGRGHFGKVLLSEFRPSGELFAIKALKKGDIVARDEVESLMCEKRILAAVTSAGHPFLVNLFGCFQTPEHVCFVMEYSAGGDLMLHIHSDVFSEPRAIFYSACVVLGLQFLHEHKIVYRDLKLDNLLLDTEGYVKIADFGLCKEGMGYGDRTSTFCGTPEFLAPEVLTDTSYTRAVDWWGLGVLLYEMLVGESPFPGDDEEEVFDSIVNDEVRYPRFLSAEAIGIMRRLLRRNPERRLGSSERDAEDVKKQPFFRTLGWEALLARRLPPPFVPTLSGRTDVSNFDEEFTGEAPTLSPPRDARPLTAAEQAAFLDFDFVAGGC
Macrophage-stimulating protein receptor (Homo sapiens), sequence (Q04912 25-304 limits assumed): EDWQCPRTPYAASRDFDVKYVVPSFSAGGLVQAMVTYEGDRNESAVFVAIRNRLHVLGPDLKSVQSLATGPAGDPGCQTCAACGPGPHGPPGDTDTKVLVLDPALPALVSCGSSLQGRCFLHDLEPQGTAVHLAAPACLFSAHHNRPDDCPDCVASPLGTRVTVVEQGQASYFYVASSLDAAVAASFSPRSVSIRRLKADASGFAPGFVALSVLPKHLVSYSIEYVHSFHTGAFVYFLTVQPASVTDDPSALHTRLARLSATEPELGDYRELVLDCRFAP
Macrophage-stimulating protein receptor (Homo sapiens), sequence (Q04912 310-1400 limits assumed): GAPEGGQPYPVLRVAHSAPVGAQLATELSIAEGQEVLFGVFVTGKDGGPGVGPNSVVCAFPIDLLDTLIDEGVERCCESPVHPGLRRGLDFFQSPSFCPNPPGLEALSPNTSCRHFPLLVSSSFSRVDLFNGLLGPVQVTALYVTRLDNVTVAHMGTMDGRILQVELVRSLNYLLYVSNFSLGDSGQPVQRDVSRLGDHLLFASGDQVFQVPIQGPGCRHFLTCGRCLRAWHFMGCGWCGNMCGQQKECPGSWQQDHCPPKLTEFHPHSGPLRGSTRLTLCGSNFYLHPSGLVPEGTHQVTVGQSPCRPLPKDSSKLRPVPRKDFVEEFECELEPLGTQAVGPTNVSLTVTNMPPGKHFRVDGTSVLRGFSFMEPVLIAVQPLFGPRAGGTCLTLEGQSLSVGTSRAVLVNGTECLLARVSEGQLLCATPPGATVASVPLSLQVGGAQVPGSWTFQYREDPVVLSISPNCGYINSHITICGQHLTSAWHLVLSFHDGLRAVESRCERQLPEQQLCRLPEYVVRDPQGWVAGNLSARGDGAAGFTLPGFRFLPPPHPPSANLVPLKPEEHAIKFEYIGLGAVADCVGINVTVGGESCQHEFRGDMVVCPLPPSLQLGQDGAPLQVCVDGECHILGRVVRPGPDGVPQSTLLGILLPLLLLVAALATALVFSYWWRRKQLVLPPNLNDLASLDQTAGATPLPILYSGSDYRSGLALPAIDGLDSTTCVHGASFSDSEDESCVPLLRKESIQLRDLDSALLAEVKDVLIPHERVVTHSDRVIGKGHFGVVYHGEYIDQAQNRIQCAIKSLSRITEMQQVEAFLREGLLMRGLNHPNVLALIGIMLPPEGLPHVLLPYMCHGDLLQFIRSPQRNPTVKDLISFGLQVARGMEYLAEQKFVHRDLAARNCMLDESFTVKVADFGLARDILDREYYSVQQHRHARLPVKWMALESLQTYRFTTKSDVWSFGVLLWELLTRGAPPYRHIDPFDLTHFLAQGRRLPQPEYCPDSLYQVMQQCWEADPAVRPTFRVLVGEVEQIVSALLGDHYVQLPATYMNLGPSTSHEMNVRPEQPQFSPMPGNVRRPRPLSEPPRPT
Cyclin-dependent kinase 18 (Homo sapiens), sequence (Q07002 whole entry): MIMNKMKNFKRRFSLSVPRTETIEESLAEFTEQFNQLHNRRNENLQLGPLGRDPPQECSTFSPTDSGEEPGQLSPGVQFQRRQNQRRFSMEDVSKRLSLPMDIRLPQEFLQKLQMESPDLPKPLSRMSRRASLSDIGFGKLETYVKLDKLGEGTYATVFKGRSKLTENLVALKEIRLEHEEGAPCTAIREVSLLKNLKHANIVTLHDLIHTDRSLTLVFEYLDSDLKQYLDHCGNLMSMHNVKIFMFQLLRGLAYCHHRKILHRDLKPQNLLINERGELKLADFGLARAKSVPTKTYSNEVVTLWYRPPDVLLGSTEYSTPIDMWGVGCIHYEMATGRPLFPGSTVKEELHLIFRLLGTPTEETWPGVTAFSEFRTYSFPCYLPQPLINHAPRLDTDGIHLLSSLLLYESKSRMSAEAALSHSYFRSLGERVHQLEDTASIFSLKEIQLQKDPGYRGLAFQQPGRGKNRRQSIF
Calcium/calmodulin-dependent protein kinase type II subunit beta (Homo sapiens), sequence (Q13554 whole entry, canonical isoform): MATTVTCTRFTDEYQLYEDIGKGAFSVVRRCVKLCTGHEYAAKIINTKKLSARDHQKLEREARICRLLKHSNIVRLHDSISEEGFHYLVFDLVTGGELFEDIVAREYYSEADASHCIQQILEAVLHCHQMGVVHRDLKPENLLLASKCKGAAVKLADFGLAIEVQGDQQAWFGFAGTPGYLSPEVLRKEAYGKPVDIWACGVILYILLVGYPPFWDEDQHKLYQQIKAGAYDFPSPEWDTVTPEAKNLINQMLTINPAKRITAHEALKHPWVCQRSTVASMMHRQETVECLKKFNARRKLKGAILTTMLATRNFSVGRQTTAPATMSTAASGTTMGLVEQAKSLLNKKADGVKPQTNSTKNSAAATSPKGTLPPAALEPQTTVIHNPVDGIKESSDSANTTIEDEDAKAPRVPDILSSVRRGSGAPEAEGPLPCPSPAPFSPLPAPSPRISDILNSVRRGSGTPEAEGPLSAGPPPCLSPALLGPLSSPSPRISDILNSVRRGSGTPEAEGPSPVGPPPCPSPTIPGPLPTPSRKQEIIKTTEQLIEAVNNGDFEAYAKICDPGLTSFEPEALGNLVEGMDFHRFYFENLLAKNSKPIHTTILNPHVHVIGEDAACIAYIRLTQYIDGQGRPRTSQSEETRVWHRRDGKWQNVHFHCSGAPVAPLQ

SMILES	inhibition [1]	inhibition [2]	inhibition [3]	inhibition [4]	inhibition [5]	inhibition [6]	inhibition [7]	inhibition [8]	inhibition [9]	inhibition [10]	inhibition [11]	inhibition [12]	inhibition [13]
COCCNC(=O)c1ccc2c(c1)nc(-c1cnc(-c3ccc(Cl)cc3)[nH]1)n2CCOC	4.53%	11.4%	24.4%	6.88%	-4.79%	10.6%	-2.57%	1.69%	11%	13%	-6.38%	7.54%	77.8%
CS(=O)(=O)c1cccc(Nc2nccc(-c3sc(N4CCOCC4)nc3-c3cccc(NS(=O)(=O)c4c(F)cccc4F)c3)n2)c1	56.2%	6.04%	89.4%	15.8%	9.43%	5.55%	12%	18.7%	94.4%	8.37%	27.3%	8.74%	20.5%
CC(C)(C)c1cc(NC(=O)Nc2ccc(Oc3ccncc3)cc2)no1	41.9%	7.39%	24.4%	9.28%	7.43%	25.1%	-0.98%	70.6%	29.7%	12.9%	92.2%	13.5%	13.5%
